According to patent US20070157931A1, “System and method for optimized delivery of an aerosol to the respiratory tract” (priority 2005, published 2007):

Columns and labels:
Format in all cases: in vivo
[1] = Wasted fraction of continuously delivered radioaerosol in ventilated sheep, expiratory filter gamma counting; conditions: continuous zero flow nebulizer
Experimental: This study was designed to compare the wasted fraction of ^99mTc-DTPA aerosols delivered continuously with the zero flow nebulizer to control sheep (n=6) and sheep administered 2 mg/kg E. coli endotoxin. This dose of endotoxin in sheep causes a period of intense bronchoconstriction and pulmonary vasoconstriction followed by pulmonary edema. The experimental setup was similar to that illustrated in FIG. 15, except that no scintillation probe was used and isotope waste was measured by counting radioactivity in a filter placed in the expiratory portion of the ventilator tubing using a gamma energy counter. The wasted fraction of aerosol was more than 3-fold higher during endotoxin-induced lung injury with endotoxin [3,836,141 (n=1)] than when the lungs were normal [1,289,102±125,326 (n=6)].

[2] = Aerosol deposition and clearance of radiotracers in lungs of ventilated sheep (Hawkeye imaging, gamma counting of lung tissue); conditions: Hi-Flo MiniHeart nebulizer
Experimental: The present study was designed to assess aerosol deposition patterns using jet nebulizers and the device of the present disclosure. These studies were conducted in the Vanderbilt University Medical Center Hawkeye scanning facility. Each sheep was surgically instrumented with catheters in a jugular vein and a carotid artery. After allowing several days for the sheep to recuperate from surgery, they were anesthetized, intubated, ventilated, and placed on the GE Hawkeye scanner bed. […] The contents of the syringe were then added to a nebulizer and aerosols generated for 30 minutes during ventilator-assisted inspiration. Planar images were taken every two minutes with anterior and posterior cameras. Nebulization was then halted, and clearance of the radiotracers over two hours was measured with Hawkeye in an identical manner. At the end of the radioisotope clearance image acquisition, a rotational CT image was taken of the sheep thoracic cavity to delineate lung boundaries and chest anatomy. The sheep was sacrificed and its lungs excised. Lungs were placed on grid paper and diced with a rectangular cutting grid. Lung tissue was placed in plastic vials and gamma energy emissions of each isotope measured with a gamma counter.

anesthetized sheep = assay: Bronchoconstriction produced by sodium arachidonate aerosol in anesthetized ventilated sheep; conditions: aerosolized, dose 1.5 grams/50 ml typically diluted 1:3
Experimental: In anesthetized sheep with either normal lung mechanics or during bronchoconstriction, the effects of phasic aerosol delivery on the amount of radioisotope deposited in the lungs and the amount expired (as collected in a waste filter) were tested. Results were compared to those in which aerosol was delivered continuously. Sheep were anesthetized and ventilated with oxygen-enriched air at a tidal volume of 500 ml and a respiratory rate of 10 breaths per minute. The ventilator setup is illustrated schematically in FIG. 15.
FIGS. 16-18 also illustrate effects of bronchoconstriction produced by an aerosol of sodium arachidonate on aerosol delivery efficiency. These studies were conducted after the control studies discussed above. Arachidonic acid was converted to sodium arachidonate by the procedure of Ogletree and Brigham and was aerosolized (Dose=1.5 grams/50 ml typically diluted 1:3) to cause marked bronchoconstriction and/or decreased lung compliance and thus elevated airway pressure. […] During bronchoconstriction, ^99mTc-DTPA was administered by phasic aerosol delivery while maintaining the arachidonate delivery. […]

Row | SMILES | wasted fraction, endotoxin-induced lung injury versus normal lungs [1] | wasted fraction of aerosol (radioactivity in expiratory filter) ([1]; endotoxin-induced lung injury, 2 mg/kg E. coli endotoxin, n=1) | wasted fraction of aerosol (radioactivity in expiratory filter) ([1]; normal lungs, control sheep, n=6) | tracer remaining in lungs after halting aerosol generation ([2]; 2 hours after halting aerosol generation) | radioisotope distribution in lung tissue ([2]; gamma counting of lung tissue samples) | hypoxemia during bronchoconstriction (anesthetized sheep) | airway pressure during bronchoconstriction (anesthetized sheep; within 20 minutes)
1 | O=C([O-])CN(CCN(CC(=O)[O-])CC(=O)[O-])CCN(CC(=O)[O-])CC(=O)[O-].[99Tc+4] [99mTc-DTPA] | more than 3 fold | 3,836,141 | 1,289,102±125,326 | much of the tracer remained | higher dorsal (towards back) and caudal (towards tail) deposition | – | –
2 | CCCCC/C=C\C/C=C\C/C=C\C/C=C\CCCC(=O)[O-].[Na+] [sodium arachidonate] | – | – | – | – | – | marked hypoxemia | 48-50 cm H2O
